From patent US12516285B2, “Small peptide MIPEP166I and use thereof in plant tissue culture” (Nanjing Forestry University, priority 2023, dated 2026)
Marks after values point to notes of the source that are not given here.

Assays:
Format in all cases: in vivo, 84K poplar (Populus alba×Populus tremula var. glandulosa)
[1] = test system: 84K poplar; test: Adventitious root formation and elongation in tissue culture on peptide-treated MS medium; conditions: 5 μM in MS medium, plants cultured for two weeks, n=15
Experimental: (§1) The three synthetic peptides were each added to MS medium at a concentration of 5 μM as exogenous treatments, while sterile water was chosen as the blank control (CK) treatment (FIG. 1B).
This may be due to the exogenous peptides acting as biological stimulants and osmotic agents, broadly inducing miRNA expression, with the lowest expression of miR166i observed in the CK samples.

[2] = test system: miR166i; test: RT-qPCR of miR166i in 84K poplar after exogenous peptide treatment
Experimental: as §1
(§2) To investigate the possible role of miPEP166i in its corresponding miRNA biogenesis, RT-qPCR was first used to analyze the abundance changes of pri-miR166i and miR166i in 84K poplar after 24 hours of exogenous treatment.
(§3) During the process of adventitious root elongation, samples collected at 6, 9, and 12 days after cultivation (T1, T2, and T3 stages) were used to detect the expression of miR166i and its targets, aiming to explore the dynamic regulatory pattern of exogenous miPEP166i treatment (FIG. 3A). Due to the equivalence of NSP and IP treatments (FIG. 2G and FIG. 2H), only samples treated with CK, NSP, and miPEP, along with control samples, were used for quantitative miRNA expression and transcriptome sequencing analysis.

[3] = test system: pri-miR166i; test: RT-qPCR of pri-miR166i in 84K poplar stem explants after exogenous peptide treatment; conditions: 5 μM in MS medium, 24 hours, vs control treatments
Experimental: as §1, §2

[4] = test system: root systems of 84K poplar; test: Time-course transcriptome (RNA-seq), differentially expressed genes; conditions: for differentially expressed genes (DEGs): miPEP vs mock and vs NSP, |log2FC|>1 and FDR<0.05
Description: as §3
(§4) RNA-seq libraries were constructed from the root systems of 84K poplar to investigate the effects of miPEP166i induction on miR166i targets.
(§5) Using time-course transcriptome data from the root systems of 84K poplar, we explored the potential downstream gene expression responses induced by exogenous application of miPEP166i. By cross-comparing miPEP treatment with mock treatment and miPEP treatment with NSP treatment, we identified 114, 130, and 547 differentially expressed genes (DEGs) (|log2FC|>1 and FDR<0.05) at the T1, T2, and T3 stages, respectively. […] These genes are controlled by the master switches of HD-ZIP III transcription factors.

[5] = test system: PagHB8; test: Expression of miR166i target gene PagHB8 (RT-qPCR and RNA-seq)
Description: as §3, §4

[6] = test system: Genes in Hormone Metabolism and Signaling Pathways; test: Time-course transcriptome (RNA-seq), hormone-related genes
Description: as §3, §4, §5
Multiple intersections between hormone signaling and HD-ZIP III activity occur during root elongation. Numerous plant hormone-related genes were found within the DEG set, including genes related to auxin and cytokinin synthesis, (De)conjugation, transport, and signaling (Table 1).

[7] = test system: PagREV; test: Expression of miR166i target gene PagREV (RT-qPCR and RNA-seq)
Description: as §3, §4

[8] = T1 stage (6 days after culture), P<0.05
[9] = T2 and T3 stages (9 and 12 days after culture)
[10] = T3 stage (12 DAC), miPEP vs NSP

IP: interference control peptide, same amino acids but different sequence, MSDFGGQPTLPFCLSSLNPKSTLK (SEQ ID NO.5)
length of adventitious roots [1]: equivalence
number of adventitious roots [1]: equivalence
expression of miR166i compared to NSP samples ([2]; 5 μM in MS medium, stem explants, 24 hours): slightly higher expression of miR166i was observed after IP treatment compared to its expression in NSP samples, the difference was not significant

NSP: non-specific control peptide of 15 amino acids, CLLNCPIYWQQLREX (SEQ ID NO.4)
length of adventitious roots [1]: equivalence
number of adventitious roots [1]: equivalence

miPEP166i: small peptide encoded by pri-miRNA166i of 84K poplar, amino acid sequence SEQ ID NO.3 (MDGQTPCSLPSLSFGPLFLSNKTK; Populus alba x Populus tremula var. glandulosa)
expression of pri-miR166i [3]: did not result in significant changes
length of adventitious roots [1]: significant increase
number of adventitious roots [1]: significant increase
differentially expressed genes (DEGs) ([4]; T1 stage): 114
differentially expressed genes (DEGs) ([4]; T2 stage): 130
differentially expressed genes (DEGs) ([4]; T3 stage): 547
downregulated genes ([4]; across all three stages): 139
upregulated genes ([4]; across all three stages): 552
expression of genes involved in cellulose and lignin biosynthesis (PagCSLD4, PagCAD7, PagCOBL1, PagPAL2) ([4]; miPEP-treated samples, root transcriptome): upregulated
expression of PagHB8 [5, 8]: significantly reduced
expression of PagHB8 [5, 9]: no significant reduction
FC_T1 miPEP/CK, ABCB9 (Pag_G_024492) ([6]; T1 stage (6 DAC), miPEP vs CK): −1.07*
FC_T1 miPEP/CK, CKX3 (Pag_A_037490) ([6]; T1 stage (6 DAC), miPEP vs CK): 4.85*
FC_T1 miPEP/CK, GH3.10 (Pag_A_034334) ([6]; T1 stage (6 DAC), miPEP vs CK): −2.92*
FC_T1 miPEP/CK, GH3.10 (Pag_G_015269) ([6]; T1 stage (6 DAC), miPEP vs CK): −1.67**
FC_T1 miPEP/CK, GH3.10 (Pag_G_025244) ([6]; T1 stage (6 DAC), miPEP vs CK): −4.42*
FC_T1 miPEP/CK, LOG5 (Pag_G_021773) ([6]; T1 stage (6 DAC), miPEP vs CK): −1.91*
FC_T1 miPEP/NSP, ABCB9 (Pag_G_024492) ([6]; T1 stage (6 DAC), miPEP vs NSP): −0.72
FC_T1 miPEP/NSP, CKX3 (Pag_A_037490) ([6]; T1 stage (6 DAC), miPEP vs NSP): 2.61
FC_T1 miPEP/NSP, GH3.10 (Pag_A_034334) ([6]; T1 stage (6 DAC), miPEP vs NSP): −2.2
FC_T1 miPEP/NSP, GH3.10 (Pag_G_015269) ([6]; T1 stage (6 DAC), miPEP vs NSP): −1.21*
FC_T1 miPEP/NSP, GH3.10 (Pag_G_025244) ([6]; T1 stage (6 DAC), miPEP vs NSP): −3.64
FC_T1 miPEP/NSP, LOG5 (Pag_G_021773) ([6]; T1 stage (6 DAC), miPEP vs NSP): −2.14*
FC_T2 miPEP/CK, CKI1 (Pag_A_024550) ([6]; T2 stage (9 DAC), miPEP vs CK): 1.02**
FC_T2 miPEP/CK, CKI1 (Pag_G_014127) ([6]; T2 stage (9 DAC), miPEP vs CK): 0.93*
FC_T2 miPEP/CK, CKX1 (Pag_G_016517) ([6]; T2 stage (9 DAC), miPEP vs CK): −1.17
FC_T2 miPEP/CK, TAA1 (Pag_G_035628) ([6]; T2 stage (9 DAC), miPEP vs CK): 0.74
FC_T2 miPEP/CK, TAA1 (Pag_G_035629) ([6]; T2 stage (9 DAC), miPEP vs CK): 0.78
FC_T2 miPEP/NSP, CKI1 (Pag_A_024550) ([6]; T2 stage (9 DAC), miPEP vs NSP): 1.11**
FC_T2 miPEP/NSP, CKI1 (Pag_G_014127) ([6]; T2 stage (9 DAC), miPEP vs NSP): 1.14**
FC_T2 miPEP/NSP, CKX1 (Pag_G_016517) ([6]; T2 stage (9 DAC), miPEP vs NSP): −2.19*
FC_T2 miPEP/NSP, TAA1 (Pag_G_035628) ([6]; T2 stage (9 DAC), miPEP vs NSP): 1.72*
FC_T2 miPEP/NSP, TAA1 (Pag_G_035629) ([6]; T2 stage (9 DAC), miPEP vs NSP): 1.49**
expression of genes encoding auxin transport proteins (PIN, ABCB, PIN-LIKES) ([6]; T3 stage): significantly increased
FC_T3 miPEP/CK, ABCB8 (Pag_A_020924) ([6]; T3 stage (12 DAC), miPEP vs CK): −1.18**
FC_T3 miPEP/CK, ABCB11 (Pag_A_005381) ([6]; T3 stage (12 DAC), miPEP vs CK): 2.40**
FC_T3 miPEP/CK, ABCB11 (Pag_A_010928) ([6]; T3 stage (12 DAC), miPEP vs CK): 1.90**
FC_T3 miPEP/CK, ABCB11 (Pag_G_007723) ([6]; T3 stage (12 DAC), miPEP vs CK): 2.08**
FC_T3 miPEP/CK, ABCB15 (Pag_A_017535) ([6]; T3 stage (12 DAC), miPEP vs CK): 1.05**
FC_T3 miPEP/CK, ABCB15 (Pag_G_028009) ([6]; T3 stage (12 DAC), miPEP vs CK): 1.21**
FC_T3 miPEP/CK, ABCB25 (Pag_A_009324) ([6]; T3 stage (12 DAC), miPEP vs CK): 1.18
FC_T3 miPEP/CK, ARF11 (Pag_G_003815) ([6]; T3 stage (12 DAC), miPEP vs CK): −1.75**
FC_T3 miPEP/CK, IAA29 (Pag_G_007396) ([6]; T3 stage (12 DAC), miPEP vs CK): −0.94*
FC_T3 miPEP/CK, LOG1 (Pag_A_016041) ([6]; T3 stage (12 DAC), miPEP vs CK): −2.72**
FC_T3 miPEP/CK, LOG3 (Pag_G_010191) ([6]; T3 stage (12 DAC), miPEP vs CK): −1.55
FC_T3 miPEP/CK, PILS3 (Pag_A_012930) ([6]; T3 stage (12 DAC), miPEP vs CK): 4.74*
FC_T3 miPEP/CK, PILS7 (Pag_G_005929) ([6]; T3 stage (12 DAC), miPEP vs CK): 0.96**
FC_T3 miPEP/CK, PIN7 (Pag_A_015236) ([6]; T3 stage (12 DAC), miPEP vs CK): 1.33**
FC_T3 miPEP/CK, PIN8 (Pag_A_008558) ([6]; T3 stage (12 DAC), miPEP vs CK): −1.07*
FC_T3 miPEP/CK, PIN8 (Pag_G_019315) ([6]; T3 stage (12 DAC), miPEP vs CK): 1.02**
FC_T3 miPEP/NSP, ABCB8 (Pag_A_020924) [6, 10]: −0.71
FC_T3 miPEP/NSP, ABCB11 (Pag_A_005381) [6, 10]: 1.34**
FC_T3 miPEP/NSP, ABCB11 (Pag_A_010928) [6, 10]: 1.13*
FC_T3 miPEP/NSP, ABCB11 (Pag_G_007723) [6, 10]: 1.34*
FC_T3 miPEP/NSP, ABCB15 (Pag_A_017535) [6, 10]: 1.11**
FC_T3 miPEP/NSP, ABCB15 (Pag_G_028009) [6, 10]: 1.27**
FC_T3 miPEP/NSP, ABCB25 (Pag_A_009324) [6, 10]: 3.26*
FC_T3 miPEP/NSP, ARF11 (Pag_G_003815) [6, 10]: −1.14*
FC_T3 miPEP/NSP, IAA29 (Pag_G_007396) [6, 10]: −1.21**
FC_T3 miPEP/NSP, LOG1 (Pag_A_016041) [6, 10]: −2.28*
FC_T3 miPEP/NSP, LOG3 (Pag_G_010191) [6, 10]: −1.86*
FC_T3 miPEP/NSP, PILS3 (Pag_A_012930) [6, 10]: −2.93
FC_T3 miPEP/NSP, PILS7 (Pag_G_005929) [6, 10]: 1.03**
FC_T3 miPEP/NSP, PIN7 (Pag_A_015236) [6, 10]: 1.08**
FC_T3 miPEP/NSP, PIN8 (Pag_A_008558) [6, 10]: −0.94
FC_T3 miPEP/NSP, PIN8 (Pag_G_019315) [6, 10]: 1.16**
expression of PagCKI1 (cytokinin signaling) ([6]; miPEP-treated samples): upregulated
expression of PagGH3 (auxin conjugation) ([6]; miPEP-treated samples): downregulated
expression of auxin synthesis gene PagTAA1 ([6]; miPEP-treated samples): significantly upregulated
expression of cytokinin synthesis gene PagLOG ([6]; miPEP-treated samples): significantly downregulated
expression of miR166i ([2]; 5 μM in MS medium, stem explants, 24 hours, vs the three control treatments): significantly enhanced
miR166i expression ([2]; T1, T2 and T3 stages (6, 9, 12 days after culture), vs CK and NSP): significant enhancement
expression of PagREV [7, 8]: significantly reduced
expression of PagREV [7, 9]: no significant reduction
